Patent US9944700B2, “Notch2 binding molecules for treating respiratory diseases” (NOVARTIS AG, priority 2013, dated 2018)

Columns and labels:
[1] = system: bronchospheres (human bronchial epithelial cells); experiment: Bronchosphere assay of secreted recombinant human proteins, qPCR of cell type markers and immunostaining; type: cell-based
Method: (§1) Human bronchial epithelial (HBE) cells and culture media were obtained from Lonza. Air-liquid interface cultures using passage 2 (P2) cells were performed as previously described (Danahay, H. et al., American journal of physiology. Lung cellular and molecular physiology 282, L226-236 (2002)). For three-dimensional culturing of HBE cells, P1 cells were trypsinized and resuspended (30,000 cells/ml) in HBE differentiation media containing 5% growth factor-reduced Matrigel (BD Biosciences). 20 μl of suspension was plated in each well of a 384-well plate (Greiner) pre-coated with 10 μl of a 25% solution of Matrigel (BD Biosciences) in HBE differentiation media. Wells were fed or treated at day 2 and day 8 of culture by adding 30 μl of differentiation media containing the appropriate treatment. Three-dimensional cultures were analyzed at the time points indicated.
Immunofluorescence of HBEC bronchospheres was performed as described previously for MCF10A cysts (Debnath, J. et al., Methods 30, 256-268 (2003) with the following modifications. After incubation with fluorescence-conjugated secondary antibodies, DNA was stained with a 1:1 mix of PBS and ProLong gold antifade containing DAPI. Confocal microscopy was performed at room temperature on a microscope (Zeiss LSM510 Meta) using an EC Plan-Neofluar 10×/0.30 dry objective (Zeiss), an EC Plan-Neofluor 20×/0.5 dry objective (Zeiss), a C-Apochromat 40×/1.2 W corr (Zeiss), or a C-Apochromat 63×/1.2 W Corr objective (Zeiss). Images were collected with Zen confocal software (Zeiss). Scale bars were added, and images were processed using Zen (Zeiss) and Photoshop (Adobe). Air-liquid interface (ALI) cultures were processed for immunofluorescence analysis after 14 days of culture at ALI by rinsing the apical surface of each filter with PBS, and then fixing in 4% paraformaldehyde for 4 hours. Filters were washed with IF buffer (130 mM NaCl, 7 mM Na2HPO4, 3.5 mM NaH2PO4, 7.7 mM NaN3, 0.1% bovine serum albumin, 0.2% Triton X-100, 0.05% Tween-20), blocked with IF wash containing 10% goat serum, and stained with primary antibody in IF wash containing 10% goat serum overnight at 4° C. Secondary antibodies were used at a 1:200 dilution in IF buffer containing 10% goat serum. To quantify the total staining area of ALI cultures, 10×13 images were collected with a plan Neofluar 10×0.3 NA Ph1 objective (EC; Carl Zeiss, Inc.) on a microscope (Axiovert 200; Carl Zeiss, Inc.) equipped with a motorized stage and a camera (Orca-ER-1394; Hamamatsu Photonics) controlled by Axiovision software (Carl Zeiss, Inc.) and used to generate a single composite image using the MOSAIX function in Zeiss Axiovision. Quantification of the total staining area was performed with ImageJ. Two to three regions of each ALI culture were punched out with a 4 mm biopsy punch (Miltex, Inc.) and mounted in ProLong gold antifade containing DAPI for imaging by confocal microscopy on a microscope (Axiovert 200; Carl Zeiss, Inc.) equipped with a motorized stage, a Yokogawa CSU-X1 spinning disc head, and an EMCCD camera (Evolve 512, Photometrics), with a Plan-Apochromat 100×/1.4 Oil DIC objective (Zeiss). Cells positive for MUC5AC, MUC5B, or cilia (acetylated α-Tubulin) staining were counted manually. For time-lapse video microscopy, HBECs were imaged at the indicated times during bronchosphere development at 37° C. with a plan Neofluar 10×0.3 NA Ph1 objective (EC; Carl Zeiss, Inc.). Images were taken every 5 min for the indicated time period. Annotations (time stamp and scale bar) were added and videos were assembled using Axiovision software.
RNA was isolated from 3D bronchosphere cultures with Trizol (Invitrogen), using manufacturer's specifications. To isolate RNA from mouse tissue, approximately 20 mg of tissue was placed in a 1.5 ml eppendorf tube with 1 ml of Buffer RLT Plus (Qiagen). A 5 mm stainless steel bead (Qiagen) was added to the tube, and the tissue was sheared using a Tissue Lyser II (Qiagen).

airway basal cells = experiment: Air-liquid interface (ALI) cultures of airway basal cells treated with IL-17A; type: cell-based, human; details: IL-17A from day 7 (day 0 at ALI), analysed day 21; FIGS. 3d, 3e
Method: as §1, with “Wells were fed or treated at day 2 and day 8 of culture by adding 30 μl of differentiation media containing the appropriate treatment.” left out
(§2) Immunofluorescence of HBEC bronchospheres was performed as described previously for MCF10A cysts (Debnath, J. et al., Methods 30, 256-268 (2003) with the following modifications. After incubation with fluorescence-conjugated secondary antibodies, DNA was stained with a 1:1 mix of PBS and ProLong gold antifade containing DAPI. Confocal microscopy was performed at room temperature on a microscope (Zeiss LSM510 Meta) using an EC Plan-Neofluar 10×/0.30 dry objective (Zeiss), an EC Plan-Neofluor 20×/0.5 dry objective (Zeiss), a C-Apochromat 40×/1.2 W corr (Zeiss), or a C-Apochromat 63×/1.2 W Corr objective (Zeiss). […]

[2] = system: Human airway basal cells grown in 3D; experiment: IL-13-driven goblet cell metaplasia in 3D bronchospheres, qPCR of cell type markers; type: cell-based
Method: as §1
RNA was isolated from 3D bronchosphere cultures with Trizol (Invitrogen), using manufacturer's specifications. […] Quantitative PCR was performed on a ViiA7 Real-Time PCR System (Applied Biosystems), using 40 ng of cDNA per reaction with the following Taqman probes (Applied Biosystems): MUC5AC, Hs01365601_m1; MUC5B, Hs00861588_m1; FOXA3, Hs00270130_m1; FOXJ1, Hs00230964_m1; DNAI2, Hs01001544_m1; TP63, Hs00978340_m1; ITGA6, Hs01041011_m1; GAPDH, Hs99999905_m1; Muc5ac, Mm012718_m1; Foxj1, Mm012367279_m1; Trp63, Mm00495788_m1; Gapdh, Mm99999915_g1.
In order to understand if neutralizing Notch2 could prevent goblet cell metaplasia, a hallmark of several airway diseases including asthma, cystic fibrosis, and COPD, anti-Notch2 antibodies were tested for their effect on IL-13-driven goblet cell metaplasia in 3D bronchospheres. Human airway basal cells were grown in 3D in the presence of vehicle control or IgG, with or without 1 ng/ml IL-13, or increasing concentrations of α-N2 D3 or 59R5 antibodies together with 1 ng/ml of IL-13, and analyzed by qPCR for the expression levels of the indicated goblet cell markers (FIG. 5a), ciliated cell markers (FIG. 5b), and basal cell markers (FIG. 5c).

[3] = system: Human airway basal cells grown in 3D; experiment: 3D bronchosphere cultures treated with Notch receptor-specific blocking antibodies, qPCR of cell type markers; type: cell-based
Method: as §1
RNA was isolated from 3D bronchosphere cultures with Trizol (Invitrogen), using manufacturer's specifications. To isolate RNA from mouse tissue, approximately 20 mg of tissue was placed in a 1.5 ml eppendorf tube with 1 ml of Buffer RLT Plus (Qiagen). A 5 mm stainless steel bead (Qiagen) was added to the tube, and the tissue was sheared using a Tissue Lyser II (Qiagen). RNA from the sheared tissue was purified using the RNeasy Plus Mini Kit (Qiagen), using manufacturer's specifications. TaqMan Reverse Trascription Reagents (Invitrogen) were used to generate cDNA from 1 μg of total RNA. Quantitative PCR was performed on a ViiA7 Real-Time PCR System (Applied Biosystems), using 40 ng of cDNA per reaction with the following Taqman probes (Applied Biosystems): MUC5AC, Hs01365601_m1; MUC5B, Hs00861588_m1; FOXA3, Hs00270130_m1; FOXJ1, Hs00230964_m1; DNAI2, Hs01001544_m1; TP63, Hs00978340_m1; ITGA6, Hs01041011_m1; GAPDH, Hs99999905_m1; Muc5ac, Mm012718_m1; Foxj1, Mm012367279_m1; Trp63, Mm00495788_m1; Gapdh, Mm99999915_g1. […]

[4] = system: IL-13 driven goblet cell metaplasia; experiment: IL-13 mouse model, co-administration of anti-Notch2 antibodies; type: in vivo
Method: RNA was isolated from 3D bronchosphere cultures with Trizol (Invitrogen), using manufacturer's specifications. To isolate RNA from mouse tissue, approximately 20 mg of tissue was placed in a 1.5 ml eppendorf tube with 1 ml of Buffer RLT Plus (Qiagen). A 5 mm stainless steel bead (Qiagen) was added to the tube, and the tissue was sheared using a Tissue Lyser II (Qiagen). RNA from the sheared tissue was purified using the RNeasy Plus Mini Kit (Qiagen), using manufacturer's specifications. TaqMan Reverse Trascription Reagents (Invitrogen) were used to generate cDNA from 1 μg of total RNA. Quantitative PCR was performed on a ViiA7 Real-Time PCR System (Applied Biosystems), using 40 ng of cDNA per reaction with the following Taqman probes (Applied Biosystems): MUC5AC, Hs01365601_m1; MUC5B, Hs00861588_m1; FOXA3, Hs00270130_m1; FOXJ1, Hs00230964_m1; DNAI2, Hs01001544_m1; TP63, Hs00978340_m1; ITGA6, Hs01041011_m1; GAPDH, Hs99999905_m1; Muc5ac, Mm012718_m1; Foxj1, Mm012367279_m1; Trp63, Mm00495788_m1; Gapdh, Mm99999915_g1.
Female Balb/c mice (20-25 g) were obtained from Charles River (Morgate, UK). Mice were housed under specific pathogen free conditions and were provided with food and water ad libitum. Experiments were performed in accordance with the UK Animals Scientific Procedures Act 1986.
Mice received 0.5 μg of recombinant mouse IL-13 (Ebiosciences, UK) or phosphate-buffered saline (PBS) intranasally on 3 consecutive (days 1, 2, 3). Mice received either 20 mg/kg neutralizing antibody against Notch2 (α-N2 D3 or α-N2 59R5) or control IgG, or PBS intraperitoneally 2 hours before intranasal challenge with either IL-13 or PBS, on days 1 and 3 only. Mice were euthanized 24 hours after the final IL-13 administration. The left lungs were excised, inflated with 10% neutral buffered formalin (NBF) and preserved in NBF. Lungs were embedded in paraffin wax and lung sections were obtained for each animal. Sections were stained with Periodic Acid-Schiff (PAS) stain for mucus.
PAS positive staining was quantified in lung sections using Definiens Image Analysis software. Two distinct lung sections were analyzed per mouse and the total area of PAS positive staining within the sections was determined. The PAS positive staining was normalized to the area of tissue analyzed and represented as ‘Relative Area PAS Positive Mucus (%)’.
Data are expressed as mean±SEM. Statistical significance was determined using a parametric one way ANOVA and Dunnetts post-test. GraphPad Prism (version 5.04) was used to generate graphs and perform statistical analysis. ***p<0.001 denotes statistically significant difference from relevant isotype control group.

[5] = system: Human bronchial epithelial (HBE) cells; experiment: IL-13-driven goblet cell metaplasia in ALI cultures; type: cell-based; details: ALI cultures (results not shown)
Method: as §1, with “Wells were fed or treated at day 2 and day 8 of culture by adding 30 μl of differentiation media containing the appropriate treatment.” left out
as §2

Row | Substance | change in expression of at least one cell-type marker, initial screen ([1]; 55 proteins tested at 3.3, 10 and 30 ng/mL) | basal cell markers ([1]; IL-17A, qPCR, FIG. 3c) | levels of goblet cell markers (MUC5AC, MUC5B and FOXA3) ([1]; broader range of IL-17A concentrations, qPCR, FIG. 3a) | expression of markers of ciliated cells (FOXJ1 and DNAI2) ([1]; broader range of IL-17A concentrations, qPCR, FIG. 3b) | expression of both of the ciliated cell markers ([1]; markers FOXJ1, DNAI2) | expression of at least two of the goblet cell markers ([1]; markers MUC5AC, MUC5B, FOXA3) | change in expression of at least one of the cell-type markers, on validation ([1]; validation, expanded concentration range) | goblet cell population (MUC5AC and MUC5B markers) (airway basal cells) | number of ciliated cells (α-tubulin marker) (airway basal cells) | IL-13-driven goblet cell metaplasia (expression of goblet cell markers MUC5AC, MUC5B and FOX3A) ([2]; 1 ng/ml IL-13, increasing antibody concentrations, qPCR, FIG. 5a) | ciliated cells function (expression of ciliated cell markers FOXJ1 and DNAI2) ([2]; 1 ng/ml IL-13, qPCR, FIG. 5b) | effect on basal cells markers p63 and ITGA6 ([2]; 1 ng/ml IL-13, qPCR, FIG. 5c) | effect on basal cell markers p63 and ITGA6 ([3]; FIG. 4c) | goblet cell formation: expression of goblet cell markers MUC5AC, MUC5B and FOXA3 ([3]; compared with IgG control or anti-Notch1 / anti-Notch3 antibodies, FIG. 4a) | ciliated cell formation: expression of ciliated cells markers FOXJ1 and DNAI2 ([3]; compared with IgG control or anti-Notch1 / anti-Notch3 antibodies, FIG. 4b) | effect on basal cell marker Trp63, qPCR of whole lung tissue ([4]; 20 mg/kg i.p. days 1 and 3, FIG. 6e) | ciliated cell marker Foxj1, qPCR of whole lung tissue ([4]; 20 mg/kg i.p. days 1 and 3, FIG. 6d) | Muc5ac expression levels, qPCR of whole lung tissue RNA ([4]; 20 mg/kg i.p. days 1 and 3, confirms reduced goblet cell metaplasia, FIG. 6c) | IL-13 driven goblet cell metaplasia (PAS staining of lung sections) ([4]; Balb/c mice, 20 mg/kg antibody i.p. 2 hours before intranasal IL-13, days 1 and 3, FIGS. 6a, 6b) | IL-13-driven goblet cell metaplasia [5]
1 | IL-17A: secreted, recombinant human protein; cytokine secreted by Th17 cells | concentration-dependent change | No significant changes | increased levels | inhibiting | attenuated | enhanced | robust change | profound expansion | dramatic reduction | – | – | – | – | – | – | – | – | – | – | –
2 | 59R5: anti-Notch2 antagonist IgG1 antibody, heavy chain SEQ ID NO: 5, light chain SEQ ID NO: 6 | – | – | – | – | – | – | – | – | – | completely inhibited | partially restored | No effect | Neither antibody showed any significant effect | decreased | increasing | no effect | concomitant increase | verified this observation | completely blocked | completely inhibited
